Data taken from patent US20250313546A1, “NUCLEIC ACID BINDERS” (UNIVERSITY OF STRATHCLYDE, priority 2022, published 2025).
Converted amounts (≈) assume the structure as drawn.

What was measured:
Assay in all cases: Antibacterial MIC, broth microdilution (CLSI)
Type in all cases: cell-based
[1] = test system: Staphylococcus aureus (ATCC 43300); conditions: Staphylococcus aureus, ATCC43300; read-out: MIC80 S. aureus
[2] = test system: Enterococcus faecalis (ATCC 51299); conditions: Enterococcus faecalis, ATCC51299; read-out: MIC80 E. faecalis
[3] = test system: Escherichia coli (ATCC 25922); conditions: Escherichia coli, ATCC25922; read-out: MIC80 E. coli

| Structure (SMILES) | MIC80 [1] [µM] | MIC80 [2] [µM] | MIC80 [3] [µM] |
| --- | --- | --- | --- |
| Cn1cc(NC(=O)c2cc(NC(=O)c3ccc(/C=C/c4cnc5ccccc5c4)cc3)cn2C)cc1C(=O)NCCCCCC(=N)N [II3, (E)-N-(6-amino-6-iminohexyl)-1-methyl-4-(1-methyl-4-(4-(2-(quinolin-3-yl)vinyl)benzamido)-1H-pyrrole-2-carboxamido)-1H-pyrrole-2-carboxamide] | 5 to 25 (≈ 3.15 to 15.8 µg/mL) | > 100 | > 100 |
| CN(C)c1ccc(/C=C/c2ccc(C(=O)Nc3cc(C(=O)Nc4cc(C(=O)NCCCCCC(=N)N)n(C)c4)n(C)c3)cn2)cc1 [II4, (E)-N-(5-((5-((6-amino-6-iminohexyl)carbamoyl)-1-methyl-1H-pyrrol-3-yl)carbamoyl)-1-methyl-1H-pyrrol-3-yl)-6-(4-(dimethylamino)styryl)nicotinamide] | 5 to 25 (≈ 3.12 to 15.6 µg/mL) | > 100 | > 100 |
| CN(C)C(=O)c1cc(NC(=O)c2cc(NC(=O)c3ccc(/C=C/c4cnc5ccccc5c4)cc3)cn2C)cn1C [IVa16, (E)-N,N,1-trimethyl-4-(1-methyl-4-(4-(2-(quinolin-3-yl)vinyl)benzamido)-1H-pyrrole-2-carboxamido)-1H-pyrrole-2-carboxamide] | < 5 | < 5 | > 100 |
| CCCNC(=O)c1cc(NC(=O)c2cc(NC(=O)c3ccc(/C=C/c4cnc5ccccc5c4)cc3)cn2C)cn1C [IVa17, (E)-1-methyl-4-(1-methyl-4-(4-(2-(quinolin-3-yl)vinyl)benzamido)-1H-pyrrole-2-carboxamido)-N-propyl-1H-pyrrole-2-carboxamide] | < 5 | < 5 | > 100 |
| COCCNC(=O)c1cc(NC(=O)c2cc(NC(=O)c3ccc(/C=C/c4cnc5ccccc5c4)cc3)cn2C)cn1C [IVa18, (E)-N-(2-methoxyethyl)-1-methyl-4-(1-methyl-4-(4-(2-(quinolin-3-yl)vinyl)benzamido)-1H-pyrrole-2-carboxamido)-1H-pyrrole-2-carboxamide] | < 5 | < 5 | > 100 |
| CONC(=N)CCNC(=O)c1cc(NC(=O)c2cc(NC(=O)c3ccc(/C=C/c4cccc(OC)c4)cc3)cn2C)cn1C [Ia29, (E)-N-(3-imino-3-(methoxyamino)propyl)-4-(4-(4-(3-methoxystyryl)benzamido)-1-methyl-1H-pyrrole-2-carboxamido)-1-methyl-1H-pyrrole-2-carboxamide] | < 5 | 5 to 25 (≈ 2.99 to 14.9 µg/mL) | > 100 |
| [H]/N=C(\CCNC(=O)c1cc(NC(=O)c2cc(NC(=O)c3ccc(C=Cc4ccc5nonc5c4)cc3)cn2C)cn1C)NOC [Ia30, (E)-4-(4-(2-(benzo[c][1,2,5]oxadiazol-5-yl)vinyl)benzamido)-N-(5-((3-imino-3-(methoxyamino)propyl)carbamoyl)-1-methyl-1H-pyrrol-3-yl)-1-methyl-1H-pyrrole-2-carboxamide] | 5 to 25 (≈ 3.05 to 15.2 µg/mL) | 5 to 25 (≈ 3.05 to 15.2 µg/mL) | > 100 |
| [H]/N=C(\CCNC(=O)c1cc(NC(=O)c2cc(NC(=O)c3ccc(C=Cc4ccc(N(C)C)cc4)nc3)cn2C)cn1C)NOC [Ia31, (E)-6-(4-(dimethylamino)styryl)-N-(5-((5-((3-imino-3-(methoxyamino)propyl)carbamoyl)-1-methyl-1H-pyrrol-3-yl)carbamoyl)-1-methyl-1H-pyrrol-3-yl)nicotinamide] | < 5 | 5 to 25 (≈ 3.06 to 15.3 µg/mL) | > 100 |
| Cn1cc(NC(=O)c2cc(NC(=O)c3ccc(/C=C/c4cnc5ccccc5c4)cc3)cn2C)cc1C(=O)NCCC(=N)NCCN1CCSCC1 [Ia47, (E)-N-(3-imino-3-((2-thiomorpholinoethyl)amino)propyl)-1-methyl-4-(1-methyl-4-(4-(2-(quinolin-3-yl)vinyl)benzamido)-1H-pyrrole-2-carboxamido)-1H-pyrrole-2-carboxamide] | 5 to 25 (≈ 3.59 to 17.9 µg/mL) | > 100 | > 100 |
| Cn1cc(NC(=O)c2cc(NC(=O)c3ccc(/C=C/c4cnc5ccccc5c4)cc3)cn2C)cc1C(=O)NCCC(=N)NCCc1ccccc1 [Ia48, (E)-N-(3-imino-3-(phenethylamino)propyl)-1-methyl-4-(1-methyl-4-(4-(2-(quinolin-3-yl)vinyl)benzamido)-1H-pyrrole-2-carboxamido)-1H-pyrrole-2-carboxamide] | < 5 | < 5 | > 100 |
| [H]/N=C(\CCNC(=O)c1cc(NC(=O)c2cc(NC(=O)c3ccc(C=Cc4ccc(N(C)C)cc4)nc3)cn2C)cn1C)NCCc1ccccc1 [Ia49, (E)-6-(4-(dimethylamino)styryl)-N-(5-((5-((3-imino-3-(phenethylamino)propyl)carbamoyl)-1-methyl-1H-pyrrol-3-yl)carbamoyl)-1-methyl-1H-pyrrol-3-yl)nicotinamide] | < 5 | > 100 | > 100 |
| CC/N=C(/CCNC(=O)c1cc(NC(=O)c2cc(NC(=O)c3ccc(/C=C/c4cnc5ccccc5c4)cc3)cn2C)cn1C)NCC [Ia50, N—((Z)-3-(ethylamino)-3-(ethylimino)propyl)-1-methyl-4-(1-methyl-4-(4-((E)-2-(quinolin-3-yl)vinyl)benzamido)-1H-pyrrole-2-carboxamido)-1H-pyrrole-2-carboxamide] | 25 to 100 (≈ 16.1 to 64.5 µg/mL) | 25 to 100 (≈ 16.1 to 64.5 µg/mL) | > 100 |
| CC/N=C(/CCNC(=O)c1cc(NC(=O)c2cc(NC(=O)c3ccc(/C=C/c4ccc(N(C)C)cc4)nc3)cn2C)cn1C)NCC [Ia51, 6-((E)-4-(dimethylamino)styryl)-N-(5-((5-(((Z)-3-(ethylamino)-3-(ethylimino)propyl)carbamoyl)-1-methyl-1H-pyrrol-3-yl)carbamoyl)-1-methyl-1H-pyrrol-3-yl)nicotinamide] | 25 to 100 (≈ 15.9 to 63.8 µg/mL) | 25 to 100 (≈ 15.9 to 63.8 µg/mL) | > 100 |
| [H]/N=C(\CCNC(=O)c1cc(NC(=O)c2cc(NC(=O)c3ccc(C=Cc4ccc(N(C)C)cc4)nc3)cn2C)cn1C)NCCN1CCSCC1 [Ia52, (E)-6-(4-(dimethylamino)styryl)-N-(5-((5-((3-imino-3-((2-thiomorpholinoethyl)amino)propyl)carbamoyl)-1-methyl-1H-pyrrol-3-yl)carbamoyl)-1-methyl-1H-pyrrol-3-yl)nicotinamide] | 5 to 25 (≈ 3.55 to 17.8 µg/mL) | > 100 | > 100 |
| C/N=C(\CCNC(=O)c1cc(NC(=O)c2cc(NC(=O)c3ccc(/C=C/c4cccc(OC)c4)cc3)cn2C)cn1C)NC [Ia53, 4-(4-((E)-3-methoxystyryl)benzamido)-1-methyl-N-(1-methyl-5-(((E)-3-(methylamino)-3-(methylimino)propyl)carbamoyl)-1H-pyrrol-3-yl)-1H-pyrrole-2-carboxamide] | < 5 | 5 to 25 (≈ 2.98 to 14.9 µg/mL) | > 100 |
| C/N=C(\CCNC(=O)c1cc(NC(=O)c2cc(NC(=O)c3ccc(/C=C/c4ccc(OC)cc4)nc3)cn2C)cn1C)NC [Ia54, 6-((E)-4-methoxystyryl)-N-(1-methyl-5-((1-methyl-5-(((E)-3-(methylamino)-3-(methylimino)propyl)carbamoyl)-1H-pyrrol-3-yl)carbamoyl)-1H-pyrrol-3-yl)nicotinamide] | 5 to 25 (≈ 2.98 to 14.9 µg/mL) | 5 to 25 (≈ 2.98 to 14.9 µg/mL) | > 100 |
| CNC(=N)CCNC(=O)c1cc(NC(=O)c2cc(NC(=O)c3ccc(/C=C/c4ccc(OC)cc4)nc3)cn2C)cn1C [Ia55, (E)-N-(5-((5-((3-imino-3-(methylamino)propyl)carbamoyl)-1-methyl-1H-pyrrol-3-yl)carbamoyl)-1-methyl-1H-pyrrol-3-yl)-6-(4-methoxystyryl)nicotinamide] | 5 to 25 (≈ 2.91 to 14.6 µg/mL) | 5 to 25 (≈ 2.91 to 14.6 µg/mL) | > 100 |
